Measured values published in US20190364896A1, “SYNERGISTIC WEED CONTROL FROM APPLICATIONS OF PYRIDINE CARBOXYLIC ACID HERBICIDES AND ALS INHIBITORS” (Dow AgroSciences LLC, priority 2014, published 2019).

Tests used:
[1] = test system: thistle (Cirsium arvense, CIRAR); assay: Postemergence herbicidal activity, greenhouse trial (visual injury 0-100%); assay type: in vivo
Experimental: (§1) Seeds of the desired test plant species were planted in Sun Gro MetroMix® 306 planting mixture, which typically has a pH of 6.0 to 6.8 and an organic matter content of about 30 percent, in plastic pots with a surface area of 103.2 square centimeters (cm^2). […] The plants were grown for 7-36 days (d) in a greenhouse with an approximate 14-hour (h) photoperiod which was maintained at about 23° C. during the day and 22° C. during the night. Nutrients and water were added on a regular basis and supplemental lighting was provided with overhead metal halide 1000-Watt lamps as necessary. The plants were employed for testing when they reached the second or third true leaf stage.
(§2) Weighed amounts of technical or formulated material (emulsifiable concentrate (EC) or soluble concentrate (SL)) were dissolved in a volume of 97:3 volume per volume (v/v) acetone/dimethyl sulfoxide (DMSO) to stock solutions. […] The concentrated stock solutions were diluted with an aqueous mixture of 1.5% v/v of Agri-dex crop oil concentrate to provide the appropriate application rates. Compound requirements are based upon a 12 milliliter (mL) application volume at a rate of 187 liters per hectare (L/ha). Spray solutions of the experimental compound mixtures were prepared by adding the stock solutions to the appropriate amount of dilution solution to form a 12 mL spray solution in two-way combinations. Formulated compounds were applied to the plant material with an overhead Mandel track sprayer equipped with 8002E nozzles calibrated to deliver 187 L/ha over an application area of 0.503 square meters (m^2) at a spray height of 18 inches (43 centimeters (cm)) above average plant canopy. Control plants were sprayed in the same manner with the solvent blank. Application rates for component (a) are in g ae/ha, and application rates for component (b) are in g ai/ha.
(§3) The treated plants and control plants were placed in a greenhouse as described above and watered by sub-irrigation to prevent wash-off of the test compounds. After 20-22 d, the condition of the test plants as compared with that of the control plants was determined visually and scored on a scale of 0 to 100 percent where 0 corresponds to no injury and 100 corresponds to complete kill. Colby's equation was used to determine the herbicidal effects expected from the mixtures. […]
(§4) Weighed amounts of technical material were dissolved in a volume of 97:3 volume per volume (v/v) acetone/dimethyl sulfoxide (DMSO) to stock solutions. […] The concentrated stock solutions were diluted with an aqueous mixture of 1.5% v/v of Agri-dex crop oil concentrate to provide the appropriate application rates. Compound requirements are based upon a 12 milliliter (mL) application volume at a rate of 187 liters per hectare (L/ha).

[2] = test system: common rice (Oryza sativa, ORYSA); assay: Postemergence crop injury (phytotoxicity), greenhouse trial (visual injury 0-100%)
Experimental: as §1, §2
(§5) The treated plants and control plants were placed in a greenhouse as described above and watered by sub-irrigation to prevent wash-off of the test compounds. After 20-22 d, the condition of the test plants as compared with that of the control plants was determined visually and scored on a scale of 0 to 100 percent where 0 corresponds to no injury and 100 corresponds to complete kill. The condition of the test plants was compared with that of the control plants as determined visually and scored on a scale of 0 to 100 percent, where 0 corresponds to no injury and 100 corresponds to complete kill. Colby's equation was used to determine the herbicidal effects expected from the mixtures.
(§6) Compound 1 was formulated as an EC and was combined with florasulam, cloransulam, diclosulam, flumetsulam, penoxsulam, or pyroxsulam. Compound 2 was formulated as an EC and was combined with florasulam or pyroxsulam. The mixtures were applied to winter wheat (TRZAW), common rice (ORYSA), maize (ZEAMX), and the phytotoxicity of the herbicidal compositions was measured. In addition, the efficacy of the herbicidal compositions on blackgrass (Alopecurus myosuroides, ALOMY), pigweed (Amaranthus retrollexus, AMARE), wild oat (Avena fatua, AVEFA), common lambsquarters (Chenopodium album L., CHEAL), thistle (Cirsium arvense CIRAR), nutsedge (Cyperus esculentus, CYPES), barnyardgrass (Echinochloa crus-galli, ECHCG), poinsettia (Euphorbia heterophylla, EPHHL), ivyleaf morning-glory (Ipomoea hederacea, IPOHE), kochia (Kochia scoparia, KCHSC), wild buckwheat (Polygonum convolvulus, POLCO), grain sorghum (Sorghum vulgare, SORVU), chickweed (Stellaria media, STEME), wild pansy (Viola tricolor, VIOTR), was evaluated.
as §4, with “(L/ha). […]” for “(L/ha).”

[3] = test system: wild pansy (Viola tricolor, VIOTR); assay: Postemergence herbicidal activity, greenhouse trial (visual injury 0-100%); assay type: in vivo
Experimental: as §1, §2, §5
as §6, with “Compound 1 was formulated as an EC and was combined with florasulam, cloransulam, diclosulam, flumetsulam, penoxsulam, or pyroxsulam.” left out
as §4

[4] = test system: nutsedge (Cyperus esculentus, CYPES); assay: as above; assay type: in vivo; details: CYPES
Experimental: as §1
as §2, with “technical” for “technical or formulated”, “material” for “material (emulsifiable concentrate (EC) or soluble concentrate (SL))”
as §3, §2

[5] = test system: kochia (Kochia scoparia, KCHSC); assay: as above; assay type: in vivo
Experimental: as §1, §2, §3, §4

[6] = test system: barnyardgrass (Echinochloa crus-galli, ECHCG); assay: as above; assay type: in vivo
Experimental: as §1, §2, §5, §6
as §4, with “(L/ha). […]” for “(L/ha).”

[7] = test system: common lambsquarters (Chenopodium album L., CHEAL); assay: as above; assay type: in vivo; details: Chenopodium album, post-emergence, CHEAL; chlorsulfuron 2.2 g ai/ha; read-out: % visual injury Obs
Experimental: as §1, §2, §5, §6
as §4, with “(L/ha). […]” for “(L/ha).”

[8] = test system: spring rape (Brassica napus, BRSNN); assay: as above; assay type: in vivo; details: BRSNN; chlorsulfuron 2.2 g ai/ha
[9] = test system: ivyleaf morning-glory (Ipomoea hederacea, IPOHE); assay: as above; assay type: in vivo
Experimental: as §1, §2, §5, §6
as §4, with “(L/ha). […]” for “(L/ha).”

[10] = test system: wild oat (Avena fatua, AVEFA); assay: as above; assay type: in vivo; details: 35 g ai/ha
Experimental: as §1, §2, §5, §6
as §4, with “(L/ha). […]” for “(L/ha).”

[11] = test system: giant foxtail (Setaria faberi, SETFA); assay: as above; assay type: in vivo
[12] = test system: blackgrass (Alopecurus myosuroides, ALOMY); assay: as above; assay type: in vivo; details: 280 g ai/ha
Experimental: as §1, §2, §5, §6
as §4, with “(L/ha). […]” for “(L/ha).”

[13] = test system: large crabgrass (Digitaria sanguinalis, DIGSA); assay: as above; assay type: in vivo
[14] = test system: chickweed (Stellaria media, STEME); assay: as above; assay type: in vivo
Experimental: as §1, §2, §5, §6
as §4, with “(L/ha). […]” for “(L/ha).”

[15] = test system: maize (Zea mays, ZEAMX); assay: Postemergence crop injury (phytotoxicity), greenhouse trial (visual injury 0-100%); details: ZEAMX; nicosulfuron 17.5 g ai/ha
Experimental: as §1, §2, §5, §6
as §4, with “(L/ha). […]” for “(L/ha).”

[16] = test system: winter rape (Brassica napus, BRSNW); assay: Postemergence herbicidal activity, greenhouse trial (visual injury 0-100%); assay type: in vivo; details: BRSNW; nicosulfuron 17.5 g ai/ha
[17] = test system: winter wheat (Triticum aestivum, TRZAW); assay: Postemergence crop injury (phytotoxicity), greenhouse trial (visual injury 0-100%); details: TRZAW
Experimental: as §1
as §2, with “technical” for “technical or formulated”, “material” for “material (emulsifiable concentrate (EC) or soluble concentrate (SL))”
as §5
Compound 2 was combined with florasulam and applied to winter wheat (TRZAW) and the phytotoxicity of the herbicidal composition was measured. In addition, the efficacy of the herbicidal composition on poinsettia (Euphorbia heterophylla, EPHHL) and […] (Cyperus esculentus, CYPES) was evaluated.
as §4, with “technical or formulated” for “technical”, “material (emulsifiable concentrate (EC) or soluble concentrate (SL))” for “material”, “(L/ha). Spray solutions of the experimental compound mixtures were prepared by adding the stock solutions to the appropriate amount of dilution solution to form a 12 mL spray solution in two-way combinations. […]” for “(L/ha).”

[18] = test system: pigweed (Amaranthus retroflexus, AMARE); assay: Postemergence herbicidal activity, greenhouse trial (visual injury 0-100%); assay type: in vivo; details: Amaranthus retroflexus, post-emergence, AMARE; orthosulfamuron 15 g ai/ha; read-out: % visual injury Obs
Experimental: as §1, §2, §3, §4

[19] = test system: velvetleaf (Abutilon theophrasti, ABUTH); assay: as above; assay type: in vivo; details: 15 g ai/ha

Compound: COc1cc(OC)nc(Oc2cccc(Oc3nc(OC)cc(OC)n3)c2C(=O)[O-])n1.[Na+] [Bispyribac-sodium]
- % visual injury Obs ([1]; 10 g ai/ha): 95%
- % visual injury Obs ([2]; 10 g ai/ha): 10%
- % visual injury Obs ([3]; 10 g ai/ha): 80%

Compound: COc1nc(C)nc(NC(=O)NS(=O)(=O)c2ccccc2Cl)n1 [Chlorsulfuron, chlorsulfuron]
- pest or weed control ([4]; Cyperus, post-emergence, chlorsulfuron 2.2 g ai/ha, read-out: % visual injury Obs): 0%
- pest or weed control ([5]; Bassia scoparia, post-emergence, KCHSC, chlorsulfuron 2.2 g ai/ha, read-out: % visual injury Obs): 50%
- pest or weed control ([1]; Cirsium arvense, post-emergence, CIRAR, chlorsulfuron 2.2 g ai/ha, read-out: % visual injury Obs): 90%
- pest or weed control ([6]; Echinochloa crus-galli, post-emergence, ECHCG, chlorsulfuron 2.2 g ai/ha, read-out: % visual injury Obs): 0%
- pest or weed control [7]: 90%
- pest or weed control ([3]; Viola tricolor, post-emergence, VIOTR, chlorsulfuron 2.2 g ai/ha, read-out: % visual injury Obs): 60%
- % visual injury Obs [8]: 93%

Compound: Cc1cnc(C2=NC(C)(C(C)C)C(=O)N2)c(C(=O)O)c1 (centres unmarked) [Imazapic, imazapic]
- pest or weed control at 35 g/ha ([6]; Echinochloa crus-galli, post-emergence, 35 g ai/ha, read-out: % visual injury Obs): 93%
- pest or weed control at 35 g/ha ([9]; Ipomoea hederacea, post-emergence, 35 g ai/ha, read-out: % visual injury Obs): 75%
- % visual injury Obs [10]: 95%
- pest or weed control at 35 g/ha ([3]; Viola tricolor, post-emergence, 35 g ai/ha, read-out: % visual injury Obs): 10%
- % visual injury Obs ([11]; 35 g ai/ha): 90%

Compound: CC(C)C1(C)N=C(c2ncccc2C(=O)O)NC1=O (centres unmarked) [Imazapyr, imazapyr]
- % visual injury Obs [12]: 97%
- pest or weed control at 280 g/ha ([9]; Ipomoea hederacea, post-emergence, 280 g ai/ha, read-out: % visual injury Obs): 85%
- pest or weed control at 280 g/ha ([3]; Viola tricolor, post-emergence, 280 g ai/ha, read-out: % visual injury Obs): 80%
- % visual injury Obs ([13]; 280 g ai/ha): 95%

Compound: COc1cc(OC)nc(NC(=O)NS(=O)(=O)c2ncccc2C(=O)N(C)C)n1 [Nicosulfuron, nicosulfuron]
- pest or weed control at 17.5 g/ha ([5]; Bassia scoparia, post-emergence, KCHSC, nicosulfuron 17.5 g ai/ha, read-out: % visual injury Obs): 5%
- pest or weed control at 17.5 g/ha ([14]; Stellaria media, post-emergence, STEME, nicosulfuron 17.5 g ai/ha, read-out: % visual injury Obs): 30%
- pest or weed control at 17.5 g/ha ([9]; Ipomoea hederacea, post-emergence, IPOHE, nicosulfuron 17.5 g ai/ha, read-out: % visual injury Obs): 30%
- % visual injury Obs [15]: 0%
- pest or weed control at 17.5 g/ha ([3]; Viola tricolor, post-emergence, VIOTR, nicosulfuron 17.5 g ai/ha, read-out: % visual injury Obs): 40%
- % visual injury Obs [16]: 85%
- % visual injury Obs ([11]; SETFA, nicosulfuron 17.5 g ai/ha): 80%

Compound: COc1cc(OC)nc(NC(=O)NS(=O)(=O)Nc2ccccc2C(=O)N(C)C)n1 [Orthosulfamuron, orthosulfamuron]
- % visual injury Obs ([17]; orthosulfamuron 15 g ai/ha): 0%
- pest or weed control at 15 g/ha ([5]; Bassia scoparia, post-emergence, KCHSC, orthosulfamuron 15 g ai/ha, read-out: % visual injury Obs): 0%
- pest or weed control at 15 g/ha [18]: 10%
- pest or weed control at 15 g/ha ([9]; Ipomoea hederacea, post-emergence, IPOHE, orthosulfamuron 15 g ai/ha, read-out: % visual injury Obs): 90%
- % visual injury Obs ([2]; ORYSA, orthosulfamuron 15 g ai/ha): 0%

Compound: metsulfuron
- % visual injury Obs ([4]; metsulfuron 1.5 g ai/ha): 50%
- % visual injury Obs ([17]; metsulfuron 1.5 g ai/ha): 0%
- % visual injury Obs ([5]; KCHSC, metsulfuron 1.5 g ai/ha): 70%
- % visual injury Obs ([1]; CIRAR, metsulfuron 1.5 g ai/ha): 90%
- % visual injury Obs ([6]; ECHCG, metsulfuron 1.5 g ai/ha): 0%
- % visual injury Obs ([2]; ORYSA, metsulfuron 1.5 g ai/ha): 20%

Compound: pyribenzoxim
- % visual injury Obs ([5]; 15 g ai/ha): 0%
- % visual injury Obs ([14]; 15 g ai/ha): 40%
- % visual injury Obs ([9]; 15 g ai/ha): 70%
- % visual injury Obs ([2]; 15 g ai/ha): 0%
- % visual injury Obs ([13]; 15 g ai/ha): 0%
- % visual injury Obs ([11]; 15 g ai/ha): 70%
- % visual injury Obs [19]: 10%
